One data set addresses T1, human AT1R (Homo sapiens, UniProt P30556).
T1 construct: host or cells: HEK-293
T1 sequence (P30556 1-359): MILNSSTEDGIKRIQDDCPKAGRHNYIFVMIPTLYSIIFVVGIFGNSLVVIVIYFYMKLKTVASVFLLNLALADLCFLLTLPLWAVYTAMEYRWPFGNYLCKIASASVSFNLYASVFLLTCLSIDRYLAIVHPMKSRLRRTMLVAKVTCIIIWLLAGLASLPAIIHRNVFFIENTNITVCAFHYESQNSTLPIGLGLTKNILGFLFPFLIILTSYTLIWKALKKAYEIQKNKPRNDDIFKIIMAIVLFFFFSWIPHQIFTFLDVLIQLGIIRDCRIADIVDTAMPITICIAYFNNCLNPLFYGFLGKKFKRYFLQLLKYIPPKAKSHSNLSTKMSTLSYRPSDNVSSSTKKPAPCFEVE
The format is binding. The note with it: HEK-293 cell membranes.

A further data set deals with T2, human AT2R (Homo sapiens, UniProt P50052).
T2 construct: host or cells: HEK-293
T2 sequence (P50052 1-363): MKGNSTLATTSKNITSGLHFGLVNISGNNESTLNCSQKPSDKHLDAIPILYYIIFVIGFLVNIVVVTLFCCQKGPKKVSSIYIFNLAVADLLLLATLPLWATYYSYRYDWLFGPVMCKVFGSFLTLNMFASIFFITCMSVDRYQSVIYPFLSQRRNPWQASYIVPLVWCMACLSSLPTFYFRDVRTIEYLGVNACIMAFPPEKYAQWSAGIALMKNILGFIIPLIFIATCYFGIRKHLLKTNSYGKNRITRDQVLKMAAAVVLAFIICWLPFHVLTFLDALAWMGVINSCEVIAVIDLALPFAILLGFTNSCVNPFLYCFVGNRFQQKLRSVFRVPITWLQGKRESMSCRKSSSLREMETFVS
The format is binding. The note with it: HEK-293 cell membranes.

A short description of data set [1]: Stability in human liver microsomes. It counts as in vitro ADME. Particulars: half-life. The method, then:
Stability in liver microsomes. Human, mouse and rat liver microsomes were used to assess the metabolic stability for the compounds. Metabolic stability was determined in 0.5 mg/mL human, mouse or rat liver microsomes at a compound concentration of 1 μM in 100 mM potassium phosphate buffer (pH 7.4) in a total incubation volume of 500 μL by Eurofins. The assay matrix was: human liver microsomes: mixed gender and pool of 50, rat liver microsomes: male, Sprague-Dawley, pool of 100 or more and mouse liver microsomes: male,CD-1, pool of 250 or more. Final microsomal protein concentration: 0.1mg/mL. The test concentration was 0.1 μM with 0.01% DMSO, 0.25% acetonitrile and 0.25% methanol by default. […] The reaction was initiated by adding NADPH-generating system and was incubated for 0, 15, 30, 45, and 60 min. The reaction was stopped by transferring the incubation mixture to acetonitrile/methanol. Samples were then mixed and centrifuged. Four reference compounds were tested in each assay. Propranolol and imipramine are relatively stable, whereas verapamil and terfenadine are readily metabolized inhuman liver microsomes. Samples were analyzed by HPLC-MS/MS using selected reaction monitoring. The HPLC system consisted of a binary LC pump with autosampler, a C-18 column, and a gradient. Peak areas corresponding to the test compound were recorded. The compound remaining was calculated by comparing the peak area at each time point to time zero. The half-life was calculated from the slope of the initial linear range of the logarithmic curve of compound remaining (%) vs. time, assuming first order kinetics. In addition, the intrinsic clearance (Clint) was calculated.^19,20

Molecules are shown by their SMILES. A value given as a limit tells only on which side of the number the result lay.

In the case of `CCCCOC(=O)NS(=O)(=O)c1sc(CCC)nc1-c1ccc(Cn2ccnc2C(C)(C)C)cc1` [Example 6, Butyl ((4-(4-((2-(tert-butyl)-1H-imidazol-1-yl)methyl)phenyl)-2-propylthiazol-5-yl)sulfonyl) carbamate], the inhibitory constant (Ki) on human AT1R was approximately 1000 nM; on human AT2R it was 71 nM.

Consider `CCCCOC(=O)NS(=O)(=O)c1ccc(CC(C)C)cc1-c1ccc(Cn2ccnc2C(C)C)cc1` [Example 37A, Butyl ((5-isobutyl-4′-((2-(isopropan-2-yl)-1H-imidazol-1-yl)methyl)-[1,1′-biphenyl]-2-yl)sulfonyl)carbamate], for which affinity at human AT2R was put at a Ki of 2.22 nM. For `CCCCOC(=O)NS(=O)(=O)c1sc(CC(C)C)nc1-c1ccc(Cn2ccnc2C2CC2)cc1` [Example 27, Butyl ((4-(4-((2-cyclopropyl-1H-imidazol-1-yl)methyl)phenyl)-2-isobutylthiazol-5-yl)sulfonyl)carbamate], the Ki on human AT1R amounted to 8000 nM; on human AT2R, 11 nM. On the same counts, the results for `CCCCOC(=O)NS(=O)(=O)c1ccc(CC(C)C)cc1-c1ccc(Cn2ccnc2-c2nccs2)cc1` [Example 35B, Potassium (butoxycarbonyl) ((5-isobutyl-4′-((2-(thiazol-2-yl)-1H-imidazolyl)methyl)-[1,1′-biphenyl]-2-yl)sulfonyl)amide] are 7000 nM and 6.7 nM. On the same counts, the results for `COC(=O)NS(=O)(=O)c1sc(CC(C)C)nc1-c1ccc(Cn2ccnc2C2CC2)cc1` [Example 26, Methyl ((4-(4-((2-cyclopropyl-1H-imidazol-1-yl)methyl)phenyl)-2-isobutylthiazol-5-yl)sulfonyl)carbamate] are 13000 nM and 99 nM. Regarding `COC(=O)NS(=O)(=O)c1sc(CC(C)C)nc1-c1ccc(Cn2ccnc2C(C)O)cc1` (stereo not drawn) [Example 23, Methyl ((4-(4-((2-(1-hydroxyethyl)-1H-imidazol-1-yl)methyl)phenyl)-2-isobutylthiazol-5-yl)sulfonyl)carbamate], in data set [1], the “Stability in liver microsomes HLM” value is reported as more than 60 min. With `COC(=O)NS(=O)(=O)c1sc(CC(C)C)cc1-c1ccc(Cn2ccnc2C(C)(C)O)cc1` [Example 41], at human AT2R, the affinity corresponds to a Ki of 3.08 nM. As for `CCCCOC(=O)NS(=O)(=O)c1ccc(CC(C)C)cc1-c1ccc(Cn2ccnc2C2CC2)cc1` [Example 38A, Butyl ((5-isobutyl-4′-((2-(cyclopropan-2-yl)-1H-imidazol-1-yl)methyl)-[1,1′-biphenyl]-2-yl)sulfonyl)carbamate], on human AT2R, affinity was put at a Ki of 5.64 nM. `COC(=O)NS(=O)(=O)c1sc(CC(C)C)cc1-c1ccc(Cn2ccnc2C(C)(C)F)cc1` [Example 43] displayed an inhibition constant Ki at human AT2R of 3.74 nM.

As to `CCCCOC(=O)NS(=O)(=O)c1sc(CCC)nc1-c1ccc(Cn2ccnc2C2CC2)cc1` [Example 29, Butyl ((4-(4-((2-cyclopropyl-1H-imidazol-1-yl)methyl)phenyl)-2-propylthiazol-5-yl)sulfonyl)carbamate], the Ki stood at 15000 nM on human AT1R and 36 nM on human AT2R. The molecule `CCCCOC(=O)NS(=O)(=O)c1sc(CC(C)C)cc1-c1ccc(Cn2ccnc2C(C)(C)F)cc1` [Example 42] came in with an inhibition constant (Ki) on human AT2R of 1.66 nM.

For `CCCCOC(=O)NS(=O)(=O)c1sc(CCC)nc1-c1ccc(Cn2ccnc2C(C)C)cc1` [Example 15, Butyl ((4-(4-((2-isopropyl-1H-imidazol-1-yl)methyl)phenyl)-2-propylthiazol-5-yl)sulfonyl)carbamate], in data set [1], the “Stability in liver microsomes HLM” value was more than 60 min. In addition, on human AT2R, affinity was put at a Ki of 39 nM.

Molecule `CCCc1nc(-c2ccc(Cn3ccnc3C(C)O)cc2)c(S(=O)(=O)NC(=O)OC)s1` (stereo not drawn) [Example 25, Methyl ((4-(4-((2-(1-hydroxyethyl)-1H-imidazol-1-yl)methyl)phenyl)-2-propylthiazol-5-yl)sulfonyl)carbamate] displayed a Ki at human AT2R of 1600 nM. As to `CCCCOC(=O)NS(=O)(=O)c1sc(CCC)nc1-c1ccc(Cn2ccnc2-c2nccs2)cc1` [Example 21, Butyl ((2-propyl-4-(4-((2-(thiazol-2-yl)-1H-imidazol-1-yl)methyl)phenyl)thiazol-5-yl)sulfonyl)carbamate], the Ki on human AT1R is 1000 nM; on human AT2R it was 350 nM.

Turning to `CCCCOC(=O)NS(=O)(=O)c1sc(CC(C)C)cc1-c1ccc(Cn2ccnc2C(C)(C)O)cc1` [Example 40A], the Ki on human AT2R was 9.62 nM. The same measure, in the same setting: in the case of `COCCOC(=O)NS(=O)(=O)c1sc(CC(C)C)cc1-c1ccc(Cn2ccnc2C(C)(C)C)cc1` [Example 44] it was 2.54 nM; in that of `COC(=O)NS(=O)(=O)c1ccc(CC(C)C)cc1-c1ccc(Cn2ccnc2C(C)C)cc1` [Example 36, Methyl ((5-isobutyl-4′-((2-(isopropan-2-yl)-1H-imidazol-1-yl)methyl)-[1,1′-biphenyl]-2-yl)sulfonyl)carbamate], 3.26 nM. For `CCCc1nc(-c2ccc(Cn3ccnc3C3CC3)cc2)c(S(=O)(=O)NC(=O)OC)s1` [Example 28, Methyl ((4-(4-((2-cyclopropyl-1H-imidazol-1-yl)methyl)phenyl)-2-propylthiazol-5-yl)sulfonyl)carbamate], the values for the Ki at human AT1R and at human AT2R were 20000 nM and 274 nM, respectively. At human AT2R, `CCCCOC(=O)NS(=O)(=O)c1sc(CC(C)C)nc1-c1ccc(Cn2ccnc2C(C)(C)F)cc1` [Example 47, Butyl ((4-(4-((2-(2-fluoropropan-2-yl)-1H-imidazol-1-yl)methyl)phenyl)-2-isobutylthiazol-5-yl)sulfonyl)carbamate] gave an inhibition constant Ki of 56 nM. As to `CCCCOC(=O)[N-]S(=O)(=O)c1ccc(CCC)cc1-c1ccc(Cn2ccnc2C(C)(C)O)cc1.[K+]` [Example 31B, Potassium (butoxycarbonyl) ((4′-((2-(2-hydroxypropan-2-yl)-1H-imidazol-1-yl)methyl)-5-propyl-[1,1′-biphenyl]-2-yl)sulfonyl)amide], the “Stability in liver microsomes HLM” value in data set [1] was found to be 20 min. With `CCCCOC(=O)NS(=O)(=O)c1ccc(CC(C)C)cc1-c1ccc(Cn2ccnc2C(C)(C)C)cc1` [Example 2A, Butyl ((4′-((2-(tert-butyl)-1H-imidazol-1-yl)methyl)-5-isobutyl-[1,1′-biphenyl]-2-yl)sulfonyl)carbamate], the Ki was approximately 10000 nM at human AT1R and 15 nM on human AT2R. Regarding `COC(=O)NS(=O)(=O)c1ccc(CC(C)C)cc1-c1ccc(Cn2ccnc2C2CC2)cc1` [Example 39A, Methyl ((5-isobutyl-4′-((2-(cyclopropan-2-yl)-1H-imidazol-1-yl)methyl)-[1,1′-biphenyl]-2-yl)sulfonyl)carbamate], at human AT2R, the Ki amounted to 4.8 nM.

`CCCc1nc(-c2ccc(Cn3ccnc3C(C)(C)F)cc2)c(S(=O)(=O)NC(=O)OC)s1` [Example 46, Methyl ((4-(4-((2-(2-fluoropropan-2-yl)-1H-imidazol-1-yl)methyl)phenyl)-2-propylthiazol-5-yl)sulfonyl)carbamate] registered an inhibition constant (Ki) on human AT2R of more than 1000 nM. Take `CCCc1nc(-c2ccc(Cn3ccnc3C(C)(C)C)cc2)c(S(=O)(=O)NC(=O)OC)s1` [Example 5, Methyl ((4-(4-((2-(tert-butyl)-1H-imidazol-1-yl)methyl)phenyl)-2-propylthiazol-5-yl)sulfonyl)carbamate]: the results for the Ki at human AT1R and on human AT2R were approximately 1000 nM and 190 nM, respectively. Molecule `COC(=O)NS(=O)(=O)c1sc(CC(C)C)nc1-c1ccc(Cn2ccnc2C(C)(C)F)cc1` [Example 48, Methyl ((4-(4-((2-(2-fluoropropan-2-yl)-1H-imidazol-1-yl)methyl)phenyl)-2-isobutylthiazol-5-yl)sulfonyl)carbamate] displayed an inhibitory constant (Ki) at human AT2R of 475 nM.

With `CCCCOC(=O)NS(=O)(=O)c1sc(CCC)nc1-c1ccc(Cn2ccnc2C(C)(C)F)cc1` [Example 45, Butyl ((4-(4-((2-(2-fluoropropan-2-yl)-1H-imidazol-1-yl)methyl)phenyl)-2-propylthiazol-5-yl)sulfonyl)carbamate], the Ki on human AT2R is more than 1000 nM.
